The target in one series is T1, human 5-HT2A receptor (Homo sapiens, UniProt P28223).
T1 construct: expressed in transfected cells; host or cells: U2OS
Kind of series: Human 5-HT2A β-arrestin reporter assay. The class given is cell-based. As to conditions: for Emax (% of serotonin): U2OS cells, relative to maximum response of serotonin. The procedure: Compound potency (EC50) and efficacy (Max response) against the human 5-HT2A receptor in stably transfected U2OS cells were determined in a G protein-coupled receptors (GPCR) cell based β-arrestin reporter assay.
Cells were seeded in a total volume of 20 μL into white walled, 384-well microplates and incubated at 37° C. overnight before analysis. For agonist determination, cells were incubated with samples to induce response. Intermediate dilution of sample stocks was performed to generate 5× samples in assay buffer. 5 μL of 5× samples were added to cells and incubated at 37° C. for 120 minutes. The final assay vehicle concentration was 1%. The results are expressed as percent efficacy relative to the maximum response of the control ligand (serotonin) in Table 10.
Compound potency (EC50) and efficacy (Max response) against the human 5-HT2A receptor in stably transfected U2OS cells was determined in a GPCR cell based β-arrestin reporter assay.
Cells were seeded in a total volume of 20 μL into white walled, 384-well microplates and incubated at 37° C. overnight before analysis. For agonist determination, cells were incubated with sample to induce response. Intermediate dilution of sample stocks was performed to generate 5× samples in assay buffer. 5 μL of 5× samples were added to cells and incubated at 37° C. for 120 mins. The final assay vehicle concentration was 1%. The results are expressed as percent efficacy relative to the maximum response of the control ligand (serotonin) in Table 48.

Series [1] is described as follows: Plasma protein binding by equilibrium dialysis, human. In kind it is in vitro ADME. As to conditions: for fraction unbound at 6 h, 1 μM: read-out: % Bound (converted); for recovery at 6 h, 1 µM: human, plasma. The method, then: The final concentration of compound was 1 μM. The final concentration of DMSO was 0.5%. Ketoconazole was used as positive control in the assay.
The assay was performed in duplicate.
All calculations were carried out using Microsoft Excel. […] The percentages of bound compound were calculated as follows: […]
Ketoconazole was used as positive control in the assay.
For orientation: In equilibrium dialysis free small molecules cross a membrane that holds back macromolecules.

The target of series [2] is human 5-hydroxytryptamine receptor 2A (5-HT2A) (Homo sapiens, UniProt P28223). Kind of series: biochemical. The class given is binding. The procedure: The objective of this study was to evaluate the binding properties of exemplary compounds of Formula (I) on 5-hydroxytryptamine receptor 2A (5-HT2A).
Sequence of human 5-hydroxytryptamine receptor 2A (5-HT2A) (P28223 whole entry): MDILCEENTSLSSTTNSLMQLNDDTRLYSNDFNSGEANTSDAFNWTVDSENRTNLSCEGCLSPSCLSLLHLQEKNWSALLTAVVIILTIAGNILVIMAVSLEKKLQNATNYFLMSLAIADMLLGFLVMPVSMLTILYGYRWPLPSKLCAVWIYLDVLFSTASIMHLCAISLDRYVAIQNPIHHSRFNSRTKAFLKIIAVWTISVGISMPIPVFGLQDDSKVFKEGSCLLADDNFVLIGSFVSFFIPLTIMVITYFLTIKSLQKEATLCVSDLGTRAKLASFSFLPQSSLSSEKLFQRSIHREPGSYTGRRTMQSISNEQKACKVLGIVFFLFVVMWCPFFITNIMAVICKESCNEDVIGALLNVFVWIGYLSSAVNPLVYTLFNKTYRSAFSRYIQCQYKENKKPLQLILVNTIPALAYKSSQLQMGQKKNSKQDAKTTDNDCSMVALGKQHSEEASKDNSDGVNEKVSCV
1. The assay buffer was prepared following Table 17 below.
2. 8 doses of reference and test compounds starting from 10 mM stock solution as required were prepared by 5-fold serial dilutions with 100% (v/v) DMSO.
3. UniFilter-96 GF/B plate was pretreated: • i. 50 μl/well of 0.5% (v/v) PEI was added to UniFilter-96 GF/C plates. The plates were sealed and incubated at 4° C. for 3 hours (hrs). • ii. After incubation, the plates were washed 3 times with ice-cold wash buffer (50 mM Tris, pH7.4).
4. The assay plate was prepared: • i. Cell membrane was diluted with assay buffer and 330 μl/well was added to 96 round deep well plates to reach a concentration of 20 μg/well. • ii. 8 concentrations of reference or test compounds were prepared and 110 μl/well was added to 96 round deep well plates. • iii. [3H]-ketanserin was diluted with assay buffer to 5 nM (5× final concentration) and 110 μl/well was added to 96 round deep well plates.
5. The plate was centrifuged at 1000 rpm for 30 seconds (secs) and then agitated at 600 rpm at room temperature for 5 min.
6. The plates were sealed and the plate incubated at 27° C. for 90 min.
7. The incubation was stopped by vacuum filtration onto GF/B filter plates followed by 4 times washing with ice-cold wash buffer (50 mM Tris, pH7.4).
8. The filter plates were sealed and 40 μl/well of scintillation cocktail was added.
10. The plate was read by using a Microbeta^2 microplate counter.
1. For reference and test compounds, the results were expressed as % Inhibition, using the normalization equation: N=100−100×(U−C2)/(C1−C2), where U is the unknown value, C1 is the average of high controls, and C2 is the average of low controls.
2. The IC50 was determined by fitting percentage of inhibition as a function of compound concentrations with Hill equation using XLfit. […]
9. The filter plates were sealed and 40 μl/well of scintillation cocktail was added.

Where [3] appears, read: β-arrestin reporter, stably transfected U2OS cells, 120 min, read-out: EC50.
[4] abbreviates: human plasma, equilibrium dialysis, 37° C., 6 hours.

Where two headings read alike, the source gives them in different places.

T1 sequence (P28223 whole entry): as above

As a reminder, the EC50 is the concentration that produces a half-maximal response. `[2H]C([2H])(c1c[nH]c2ccc(OCCCCCN3C(=O)[C@H]4CCCC[C@H]4C3=O)cc12)[C@H]1CCCN1C([2H])([2H])[2H]` [Cis (R) I-248, 2-(5-((3-(((R)-1-(Methyl-d3)pyrrolidin-2-yl)methyl-d2)-1H-indol-5-yl)oxy)pentyl)hexahydro-1H-isoindole-1,3(2H)-dione]: the “Emax (% of serotonin)” value at human 5-HT2A receptor (β-arrestin reporter) is 84.4 % of serotonin. Also, the EC50 on human 5-HT2A receptor (setting [3]) was 112 nM.
Broadly, the IC50 is the point on the concentration scale where inhibition reaches its midpoint. Consider `[2H]C([2H])(c1c[nH]c2ccc(OCCCCN3C(=O)c4ccccc4C3=O)cc12)[C@H]1CCCN1C([2H])([2H])[2H]` [(R) I-244, (R)-2-(4-((3-((1-(Methyl-d3)pyrrolidin-2-yl)methyl-d2)-1H-indol-5-yl)oxy)butyl)isoindoline-1,3-dione], for which, in series [1] (human plasma, 6 hours), the “% Remaining @ 6 hours” value amounted to 105.89%. In addition, in series [1] (setting [4]), the fraction unbound at 6 h, 1 μM is 0.0142 and the recovery at 6 h, 1 µM is 90.1%. This compound returned an IC50 in series [2] of 129 nM. Moreover, at human 5-HT2A receptor (β-arrestin reporter), the “Emax (% of serotonin)” value is 79.58 % of serotonin. Moreover, the EC50 on human 5-HT2A receptor (setting [3]) amounted to 6.71 nM.
Turning to `CSc1ccc2[nH]cc(C[C@H]3CCCN3C)c2c1` [(R) I-1, (R)-3-((1-Methylpyrrolidin-2-yl)methyl)-5-(methylthio)-1H-indole], the “% Remaining @ 6 hours” value in series [1] (Human plasma, 1 μM, 6 hours, 37° C.) is recorded as 103.38%. In addition, in series [1] (Human plasma, 1 μM, equilibrium dialysis 6 hours, 37° C.), the fraction unbound at 6 h, 1 μM is 0.16. In series [1] (Human plasma, 1 μM, equilibrium dialysis 6 hours), the recovery at 6 h, 1 µM amounted to 102%. In series [2], this compound had an IC50 of 154 nM. For the same compound, the EC50 at human 5-HT2A receptor is 25.4 nM. The “Emax (% of serotonin)” value on human 5-HT2A receptor (β-arrestin reporter) is recorded as 79.27 % of serotonin.
As to `CN(C)CCc1c[nH]c2ccccc12` [DMT], the IC50 in series [2] ([3H]-ketanserin displacement, cell membrane, 27° C., 90 min, read-out: h5-HT2A, IC50) was determined as 954 nM. For the same compound, the “Emax (% of serotonin)” value on human 5-HT2A receptor (β-arrestin reporter) is 38.86 % of serotonin. The EC50 on human 5-HT2A receptor (setting [3]) worked out at 114 nM.
For the compound `[2H]C([2H])(c1c[nH]c2ccc(OCCCCCN3C(=O)c4ccccc4C3=O)cc12)[C@H]1CCCN1C([2H])([2H])[2H]` [(R) I-245, (R)-2-(5-((3-((1-(Methyl-d3)pyrrolidin-2-yl)methyl-d2)-1H-indol-5-yl)oxy)pentyl)isoindoline-1,3-dione], the IC50 in series [2] is 225 nM. Also, the “Emax (% of serotonin)” value at human 5-HT2A receptor (β-arrestin reporter) is given as 82.18 % of serotonin. Further, the EC50 on human 5-HT2A receptor (setting [3]) worked out at 28.4 nM.
For the compound `[2H]C([2H])(c1c[nH]c2ccc(OCCCCCN3C(=O)C4CCCCC4C3=O)cc12)[C@H]1CCCN1C([2H])([2H])[2H]` (mixture of isomers) [Rac (R) I-248], in series [2], the IC50 came to 310 nM.
Regarding `COCCN1CCC[C@@H]1Cc1c[nH]c2ccc(OC)cc12` [(R) I-98, (R)-5-Methoxy-3-((1-(2-methoxyethyl)pyrrolidin-2-yl)methyl)-1H-indole], in series [1] (human plasma, 6 hours), the “% Remaining @ 6 hours” value is listed as 104.64%. Further, in series [1] (setting [4]), the fraction unbound at 6 h, 1 μM was 0.168 and the recovery at 6 h, 1 µM came to 101%. In addition, the IC50 in series [2] stood at 350 nM. For the same compound, the “Emax (% of serotonin)” value at human 5-HT2A receptor (β-arrestin reporter) is on record as 81.67 % of serotonin. For the same compound, the EC50 on human 5-HT2A receptor (setting [3]) amounted to 25.8 nM.

(Values after patent publication US12606543B2, “Indole derivatives as serotonergic agents useful for the treatment of disorders related thereto” (priority 2023, dated 2026).)
